Results from patent publication US8957087B2, “Heterocyclic substituted acardite derivate and application thereof” (Jiangsu Provincial Institute of Materia Medica Co., Ltd., priority 2009, dated 2015).
Several values for one entry are separate records, joined by “and”; a condition that tells them apart may be missing. Equal values may be shown once. Read-outs that look alike come from different tables or passages of the source. Marks after values point to notes of the source that are not given here.

How the values were obtained:
Raf-1(truncated) = assay: Raf-1 inhibitor screening by chemoluminescence method; type: biochemical; conditions: Final concentration 1 x 1.0*10^−5 mol/ml
Source text: 1. Inhibitory activity of the compound of the present invention on raf kinase
Raf-1 inhibitor screening by chemoluminescence method
Westernblot electrophoresis apparatus Rotaryshaker
Raf-1(truncated), Magnesium/ATP Cocktail, MEK1 unactive

[1] = system: human lung cancer cell strain A549; assay: MTT assay, inhibition of growth of human lung cancer cell strain A549; type: cell-based
Procedure: 4. Using 3-(4,5-dimethylthiazol-2-yl)-2,5-diphenyl tetrazolium bromide assay (MTT) to detect the inhibition effects on the growth of human lung cancer cell strain A549
[Test materials] MTT working solution, F12 medium containing 10% FBS, continuous injectors
(§1) [Tested compound] Compounds 1-38
(§2) [Positive control medicine] Sorafenib, compounds A′, B′, C′ with no substituent or only amino formyl in A ring
The inhibition rate is calculated as follows:
(§3) Relative OD value of conrol well=OD value of control well−OD value of blank well
(§4) Relative OD value of drug well=OD value of drug well−OD value of blank well

[2] = system: human high-metastic lung cancer cell 95D; assay: Inhibition of human high-metastic lung cancer cell 95D migration (Boyden Chamber Transwell); type: cell-based; conditions: Final concentration 1 x 1.0*10^(−5) mol/L
Procedure: 5 Inhibition effects of compounds on human high-metastic lung cancer cell 95D migration
[Test materials] Boyden Chamber Transwell chamber (with pore size of 8 μm), human high-metastic lung cancer cell 95D cell strain, 1640 medium containing 10% FBS, 1640 medium containing no serum
as §1, §2
(§5) The inhibition rate is calculated as follows: […]

lung cancer cell A549 = assay: Effects on the adhesive ability of lung cancer cell A549; type: cell-based, human; conditions: Final concentration 1 x 1.0*10^(−5) mol/L
Procedure: 6. Effects of tested compounds on the adhesive ability of lung cancer cell A549
[Test materials] gelatin, CCK8, poly-lysine (PLL), A549 cell stains, 1640 medium containing 10% FBS
(§6) [Tested compound] Compounds 1-38 to be tested
as §2, §5
Dosing dosing cells without cell group (gelatin adhesive OD/PLL adhesion OD)−Dosing cell group (gelatin adhesive OD/PLL adhesion OD value)
Dosing dosing cells without cell group (gelatin adhesive OD/PLL adhesion OD value)

[3] = system: human umbilical vein endothelial cell HUVEC; assay: Growth of human umbilical vein endothelial cell HUVEC by CCK8 method; type: cell-based; conditions: Final concentration 1 x 1.0*10^(−5) mol/L
Source text: 7. Effects of tested compounds on the growth of human umbilical vein endothelial cell HUVEC cell by CCK8 method
[Test materials] CCK8, human umbilical vein endothelial cell HUVEC cell, 1640 medium containing 10% FBS
as §6, §2, §3, §4

[4] = system: human umbilical vein endothelial cell HUVEC; assay: Lumen formation ability of HUVEC (Matrigel method); type: cell-based; conditions: Final concentration 1 x 1.0*10^(−5) mol/L
Source text: 8. Inhibition effects of compounds on the lumen formation ability of human umbilical vein endothelial cell HUVEC
[Experimental principles] The human umbilical vein endothelial cells have ability of spontaneously forming blood lumen on Matrigel, which can be used to simulate the process of angiogenesis in vivo. We used Matrigel method to investigate the effects of the compound on the lumen formation ability of human umbilical vein endothelial cell HUVEC.
[Test materials] HUVEC (taking generation 3 to 5 cells for experiments after obtained from primary separation and cultured at 37 under the conditions of 5% CO2), Matrigel, cell culture medium M199.
as §1, §2, §5

[5] = system: human lung cancer A549 transplantation tumor; type: in vivo; conditions: BALB/cA nude mice; 60 mg/kg, 6 times every week for 3 weeks; Sorafenib oral 60 mg/kg
Procedure: 9. Tumor inhibition rate of tested compounds on human lung cancer A549 cell transplantation model in nude mice
(§7) [Test animals] female BALB/cA nude mice, 35-40 days old, with weight of 18-22g. There were 12 mice in the negative conrol group and 6 mice in the treatment group.
(§8) The dosage of the compound was 60 mg/kg, 6 times every week for 3 weeks. […] Equal amount of normal saline was administrated in the negative control group. Observe for one week after administration.

[6] = system: human liver cancer cell bel-7402 transplantation tumor; type: in vivo; conditions: 60 mg/kg
Procedure: 10. Tumor inhibition rate of tested compounds on human liver cancer cell bel-7402 transplantation tumor model in nude mice
as §7, §8

[7] = system: renal carcinoma cell line GCR-1 transplanted tumor; type: in vivo, BALB/cA nude mice; conditions: BALB/cA nude mice; 60 mg/kg, 6 times every week for 3 weeks; Sorafenib oral 60 mg/kg
Procedure: 11. Tumor inhibition rate of medicines on renal carcinoma cell line GCR-1 transplanted tumor model in nude mice
as §7
[Test method] […] The dosage of the medicine was 60 mg/kg, 6 times every week for 3 weeks. […] Equal amount of normal saline was administrated in the negative control group. Observe for one week after administration.

mice S180 sarcoma = assay: Experimental therapeutic action on S180 sarcoma mice; conditions: for Tumor growth inhibition rate (%): mice S180 sarcoma, 60 mg/kg orally for 9 days
[8] = system: Human colon cancer HT-29 transplantable tumor; assay: Human colon cancer HT-29 transplantable tumor in nude mice; conditions: for Relative tumor reproduction rate T/C (%): HT-29 in nude mice
Procedure: Experimental therapeutic action of the compound in the present invention on Human colon cancer HT-29 transplantable tumor in nude mice.
Take eugenic tumor tissues and cut into about 1.5 mm^3, and then incoculate subcutaneously at the right armpit of nude mice under the sterile conditions. The diameter of the transplantable tumor in nude mice was determined with a vernier caliper, and the animals were divided into groups after the tumors were grown to 100-300 mm^3. Using the method of measuring the tumor diameter, dynamically observe the antitumor effects of tested materials. The diameter of the tumor was determined three times every week and the mouse weight was weighed at the same time. […] The solvent was intragastrically administrated as the control for continuous 9 times. Equal amount of control was administrated in the negative control group.
Tumor volume (TV) is calculated as: TV=½×a×b^2, wherein a and b respectively represent length and width.
Relative tumor volume (RTV) is calculated as: RTV=TVt/TV0, wherein TV0 is the tumor volume when administrated according to different cages and TVt is the tumor volume measured each time.
Relative tumor reproduction rate T/C (%) is calculated as follows:
TRTV: RTV in the treatment group; CRTV: RTV in the negative control group.
The test results used relative tumor reproduction rate T/C (%) as evaluating indicator of anti-tumor activity.

[9] = Final concentration 1 x 1.0*10^(−5) mol/L
[10] = BALB/cA nude mice, 6 times every week for 3 weeks, Sorafenib oral 60 mg/kg

Compound | Inhibition rate % on raf kinase (Raf-1(truncated)) [%] | Inhibition rate, growth of human lung cancer cell A549 [1, 9] [%] | Inhibition rate, 95D cell strain migration [2] [%] | Inhibition rate, adhesion ability of human lung cancer cell A549 (lung cancer cell A549) [%] | Inhibition rate, growth of HUVEC cell [3] [%] | Inhibition rate, lumen formation ability of HUVEC [4] [%] | Relative tumor reproduction rate T/C (%) on human lung cancer A549 transplantation tumor in nude mice [5] [%] | Relative tumor reproduction rate T/C (%) on human liver cancer cell bel-7402 transplantation tumor model in nude mice [6, 10] [%] | Relative tumor reproduction rate T/C (%) on human renal carcinoma GCR-1 cell transplanted tumor model in nude mice [7] [%] | Tumor growth inhibition rate (%) (mice S180 sarcoma) | Relative tumor reproduction rate T/C (%) ([8]; 60 mg/kg ig 9 times) | Inhibition rate, growth of human lung cancer cell A549 [1] [%] | also measured
CNC(=O)c1cc(Oc2ccc(NC(=O)Nc3ccc(F)c(C(F)(F)F)c3)cc2)c2cc(OC)ccc2n1 [Compound 2] | 61.1 | 61.11 | 85.17 | 75.15 | 13.11 | 75.14 | 35.3 | 35.4 | 23.2 |  |  |  | Tumor weight x ± SD (mice S180 sarcoma; 60 mg/kg ig for 9 days, day 10): 0.87 ± 0.24 g; Tumor growth inhibition rate (%) (mice S180 sarcoma; 60 mg/kg): 46.0% and 24.1%; Weight (g) Start (mice S180 sarcoma; mouse body weight at start, 60 mg/kg ig): 18.9 ± 1.7 g; Weight (g) Final (mice S180 sarcoma; mouse body weight final, 60 mg/kg ig for 9 days): 20.9 ± 2.3 g; Relative tumor reproduction rate T/C (%) ([8]; 60 mg/kg ig 9 times, 60 mg/kg): 39.45%; Weight (g) d0 ([8]; nude mouse body weight d0, 60 mg/kg): 19.9 ± 0.8 g; Weight (g) d13 ([8]; nude mouse body weight d13, 60 mg/kg ig 9 times): 21.0 ± 0.8 g; RTV ([8]; relative tumor volume, 60 mg/kg ig 9 times): 2.00 ± 0.41; TV d0 ([8]; tumor volume d0, 60 mg/kg): 133 ± 23; TV d13 ([8]; tumor volume d13, 60 mg/kg ig 9 times): 265 ± 100
CNC(=O)c1nc(Oc2ccc(NC(=O)Nc3ccc(F)c(C(F)(F)F)c3)cc2)c2ccc(F)cc2n1 [Compound 5, N-(4-fluoro-3-(trifluoromethyl)phenyl)-N′-(4-(2-(N-methylaminoformoxyl)-4-(7 fluoroquinazolinyl)oxy)phenyl)urea] | 98.9 | 93.50 | 97.51 | 87.58 | 8.50 | 87.50 | 11.6 | 15.7 | 11.2 | 49.3 | 38.24 |  | 
CNC(=O)c1nc(Oc2ccc(NC(=O)Nc3ccc(Br)c(C(F)(F)F)c3)cc2)c2ccc(F)cc2n1 [Compound 6, N-(4-bromo-3-(trifluoromethyl)phenyl)-N′-(4-(2-(N-methylaminoformoxyl)-4-(7 fluoroquinazolinyl)oxy)phenyl)urea] | 80.1 | 92.50 | 93.71 | 93.59 | 7.50 | 90.55 | 15.9 | 19.5 | 12.5 | 51.2 | 39.58 |  | 
CNC(=O)c1ncc(Oc2ccc(NC(=O)Nc3ccc(Cl)c(C(F)(F)F)c3)cc2)c(OC)n1 [Compound 7, N-(4-chloro-3-(trifluoromethyl)phenyl)-N′-(4-(2-(N-methylaminoformoxyl)-5-(4-methoxypyrimidinyl)oxy)phenyl)urea] | 99.1 | 45.30 | 89.34 | 68.34 | 8.30 | 60.34 | 39.3 | 34.2 | 21.2 | 21.5 | 40.1 |  | 
CNC(=O)c1ncc(Oc2ccc(NC(=O)Nc3ccc(F)c(C(F)(F)F)c3)cc2)c(OC)n1 [Compound 8, N-(4-fluoro-3-(trifluoromethyl)phenyl)-N′-(4-(2-(N-methylaminoformoxyl)-5-(4-methoxypyrimidinyl)oxy)phenyl)urea] |  | 60.67 | 89.56 | 61.56 | 13.67 | 78.59 | 30.5 | 30.6 | 29.1 | 58.2 | 37.6 |  | 
O=C(Nc1ccc(Oc2ccnc3ccccc23)cc1)Nc1ccc(Cl)c(C(F)(F)F)c1 [Compound A′, reference compound] |  |  | 63.51 | 71.55 | 23.11 | 60.51 | 43.2 | 37.2 | 34.2 |  |  | 58.51 | 
O=C(Nc1ccc(Oc2ccncn2)cc1)Nc1ccc(Cl)c(C(F)(F)F)c1 [Compound B′, reference compound] |  |  | 61.60 | 69.26 | 31.64 | 61.62 | 40.4 |  | 30.4 |  |  | 61.62 | Relative tumor reproduction rate T/C (%) on human liver cancer cell bel-7402 transplantation tumor model in nude mice ([6]; mouse, in vivo, po): 30.4%
N-(4-fluoro-3-(trifluoromethyl)phenyl)-N′-(4-(4-pyrryl)oxy)phenyl)urea [Compound C′, reference compound] |  |  | 63.20 | 68.62 | 22.27 | 60.50 | 36.6 | 32.6 | 35.6 |  |  | 62.25 | 
